This note sets out measurements from PubChem BioAssay AID296 (DTP/NCI, 2004).

Each structure is given as a SMILES string. Several values for one entry are separate records, joined by “and”; a condition that tells them apart may be missing. Identical values can stand only once. Records with an inconclusive call do not appear.

The test deals with MX-1 breast xenograft, nude mice, tumor weight T/C. Kind of test: NCI In Vivo Anticancer Drug Screen. Data for tumor model Human Mammary Carcinoma MX-1 Xenograft (intrarenal inoculation) in NU/NU Swiss (nude) mice. The settings on record: endpoint: mean tumor weight change, higher = larger tumour. The procedure, abridged:
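Tumor-bearing mice were treated with test compound alongside a vehicle-treated control group. Survival or tumor size was measured, and activity is expressed as the treated-group value divided by the control-group value.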
On the technique in general: Xenograft models place foreign cells or tissue in a host animal.

Setting [1] is: dose: 600.0 mg/kg/injection, schedule: Q04DX003 (sc), vehicle: saline with Tween-80.
The mark [2] stands for this setting: dose: 0.5 mg/kg/injection, schedule: Q01DX010 (sc), vehicle: saline.
Setting [3] is: dose: 100.0 mg/kg/injection, schedule: Q04DX003 (sc), vehicle: saline with Tween-80.
The mark [4] stands for this setting: dose: 100.0 mg/kg/injection, schedule: Q01DX010 (sc), vehicle: saline with Tween-80.
Where [5] appears, read: dose: 150.0 mg/kg/injection, schedule: Q04DX003 (sc), vehicle: saline with Tween-80.
[6] abbreviates: dose: 300.0 mg/kg/injection, schedule: Q04DX003 (sc), vehicle: saline with Tween-80.
The mark [7] stands for this setting: dose: 1200.0 mg/kg/injection, schedule: Q04DX003 (sc), vehicle: saline with Tween-80.
Setting [8] is: dose: 2400.0 mg/kg/injection, schedule: Q04DX003 (sc), vehicle: saline with Tween-80.
Where [9] appears, read: dose: 150.0 mg/kg/injection, schedule: Q04DX003 (sc), vehicle: suspension in saline.
Where [10] appears, read: dose: 300.0 mg/kg/injection, schedule: Q04DX003 (sc), vehicle: suspension in saline.
Setting [11] is: dose: 600.0 mg/kg/injection, schedule: Q04DX003 (sc), vehicle: suspension in saline.

Turning to `S=c1nc[nH]c2nc[nH]c12`, the T/C is, setting by setting: (dose: 5.25 mg/kg/injection, schedule: Q01DX010 (sc), vehicle: Klucel (hydroxypropylcellulose) (HPC)) 118 % of control; (dose: 12.5 mg/kg/injection, schedule: Q01DX010 (sc), vehicle: Klucel (hydroxypropylcellulose) (HPC)) 72 % of control and 79 % of control.

As to `NC(C(=O)O)c1ccc(CBr)cc1` (stereo not drawn), the T/C runs as follows: (dose: 200.0 mg/kg/injection, schedule: Q04DX003 (sc), vehicle: acid diluted with saline) 61 % of control; (dose: 400.0 mg/kg/injection, schedule: Q04DX003 (sc), vehicle: acid diluted with saline) 92 % of control; (dose: 800.0 mg/kg/injection, schedule: Q04DX003 (sc), vehicle: acid diluted with saline) 73 % of control; (dose: 1600.0 mg/kg/injection, schedule: Q04DX003 (sc), vehicle: acid diluted with saline) 106 % of control.

`COc1ccc(CC2C(=O)NC(C)C(=O)N(C)C3C(=O)N(C)C(Cc4ccc(O)c(c4)Oc4ccc(cc4)C3O)C(=O)NC(C)C(=O)NC(C)C(=O)N2C)cc1` (stereo not drawn): the T/C is 78 % of control (dose: 0.5 mg/kg/injection, schedule: Q01DX010 (sc), vehicle: saline with Tween-80); 51 % of control (dose: 1.0 mg/kg/injection, schedule: Q01DX010 (sc), vehicle: saline with Tween-80); 34 % of control (dose: 2.0 mg/kg/injection, schedule: Q01DX010 (sc), vehicle: saline with Tween-80).

For `NC(Cc1ccc(N(CCCl)CCCl)cc1)C(=O)O` (stereo not drawn), the T/C (dose: 10.0 mg/kg/injection, schedule: Q04DX003 (sc), vehicle: Klucel (hydroxypropylcellulose) (HPC)) was -99 % of control; the T/C (dose: 20.0 mg/kg/injection, schedule: Q04DX003 (sc), vehicle: Klucel (hydroxypropylcellulose) (HPC)) was -100 % of control; the T/C (dose: 40.0 mg/kg/injection, schedule: Q04DX003 (sc), vehicle: Klucel (hydroxypropylcellulose) (HPC)) was -99 % of control.

Consider `CCOC(=O)C(CC(C)C)NC(=O)C(Cc1ccc(N(CCCl)CCCl)cc1)NC(C)=O` (stereo not drawn), for which the T/C is, setting by setting: (dose: 37.5 mg/kg/injection, schedule: Q04DX003 (sc), vehicle: saline with Tween-80) 50 % of control; under setting [1], -97 % of control and -96 % of control.

As to `c1ccc([P+](c2ccccc2)(c2ccccc2)c2ccccc2)cc1`, the T/C was 80 % of control (dose: 5.0 mg/kg/injection, schedule: Q04DX003 (sc), vehicle: saline); 69 % of control (dose: 10.0 mg/kg/injection, schedule: Q04DX003 (sc), vehicle: saline); 61 % of control (dose: 20.0 mg/kg/injection, schedule: Q04DX003 (sc), vehicle: saline).

As for `C[N+](C)(C)c1ncnc2c1ncn2C1CCCO1` (stereo not drawn), the T/C by setting is: (dose: 0.25 mg/kg/injection, schedule: Q01DX010 (sc), vehicle: saline) 83 % of control; under setting [2], 112 % of control; (dose: 1.0 mg/kg/injection, schedule: Q01DX010 (sc), vehicle: saline) 50 % of control; (dose: 2.0 mg/kg/injection, schedule: Q01DX010 (sc), vehicle: saline) 163 % of control.

Turning to `COc1ccc(C(N)=O)cc1N=NN(C)C`, the T/C (dose: 50.0 mg/kg/injection, schedule: Q01DX010 (sc), vehicle: Klucel (hydroxypropylcellulose) (HPC)) is 169 % of control.

`ClC1=C(Cl)C(Cl)=C(Cl)C1=Cc1ccccc1`: the T/C is 98 % of control under setting [3]; 119 % of control (dose: 200.0 mg/kg/injection, schedule: Q04DX003 (sc), vehicle: saline with Tween-80); 98 % of control (dose: 400.0 mg/kg/injection, schedule: Q04DX003 (sc), vehicle: saline with Tween-80); 110 % of control (dose: 800.0 mg/kg/injection, schedule: Q04DX003 (sc), vehicle: saline with Tween-80).

As for `O=Cc1ccc(C(Cl)(Cl)Cl)cc1`, the T/C runs as follows: under setting [4], 182 % of control; (dose: 400.0 mg/kg/injection, schedule: Q01DX010 (sc), vehicle: saline with Tween-80) 120 % of control; (dose: 800.0 mg/kg/injection, schedule: Q01DX010 (sc), vehicle: saline with Tween-80) 46 % of control.

Take `CC1=C(/C=C/C(C)=C/C=C/C(C)=C/C=O)C(C)(C)CCC1`: the T/C under setting [5] is 88 % of control, the T/C under setting [6] is 98 % of control and the T/C under setting [7] is 53 % of control.

For the compound `CCCCCC1c2cc(O)ccc2OC1N1CCOCC1` (stereo not drawn), the T/C was 72 % of control under setting [6], 71 % of control under setting [1], 90 % of control under setting [7] and 67 % of control under setting [8].

For `CC(C)[NH-].CC(C)[NH-].[Cl][Pt+2][Cl]`, the T/C (dose: 300.0 mg/kg/injection, schedule: Q04DX003 (sc), vehicle: dextrose) is 35 % of control.

As for `COc1cccc2c1C(=O)c1c(O)c3c(c(O)c1C2=O)C[C@@](O)(C(=O)CO)C[C@@H]3OC1CC(N)CC(C)O1` (stereo partly drawn), the T/C is 43 % of control (dose: 0.19 mg/kg/injection, schedule: Q01DX010 (sc), vehicle: water); 51 % of control (dose: 0.37 mg/kg/injection, schedule: Q01DX010 (sc), vehicle: water); 61 % of control (dose: 0.75 mg/kg/injection, schedule: Q01DX010 (sc), vehicle: water); 59 % of control (dose: 1.5 mg/kg/injection, schedule: Q01DX010 (sc), vehicle: water).

In the case of `O=C(C/C(=N\C(=S)Nc1cc(C(F)(F)F)ccc1Cl)NO)N1CCCC1`, the T/C was 88 % of control under setting [5], 94 % of control under setting [6], 82 % of control under setting [1] and 98 % of control under setting [7].

As to `CCCCCCCCCCCCSC1=C(Cl)C(=O)C(OC)=C(OC)C1=O`, the T/C runs as follows: under setting [6], 47 % of control; under setting [1], 77 % of control.

In the case of `O=C1OC(=O)[C@H]2[C@@H]1[C@H]1C=C[C@@H]2OC1=O`, the T/C reads like this: (dose: 25.0 mg/kg/injection, schedule: Q04DX003 (sc), vehicle: suspension in saline) 83 % of control; (dose: 50.0 mg/kg/injection, schedule: Q04DX003 (sc), vehicle: suspension in saline) 101 % of control; (dose: 100.0 mg/kg/injection, schedule: Q04DX003 (sc), vehicle: suspension in saline) 89 % of control; under setting [9], 91 % of control; (dose: 200.0 mg/kg/injection, schedule: Q04DX003 (sc), vehicle: suspension in saline) 90 % of control; under setting [10], 109 % of control. Also, under setting [11], the T/C was 89 % of control.

Consider `C[C@@]12C(=O)OC(=O)[C@]1(C)[C@H]1CC[C@@H]2O1`, for which the T/C was 29 % of control (dose: 1.25 mg/kg/injection, schedule: Q04DX003 (sc), vehicle: Klucel (hydroxypropylcellulose) (HPC)) and 74 % of control (dose: 2.5 mg/kg/injection, schedule: Q04DX003 (sc), vehicle: Klucel (hydroxypropylcellulose) (HPC)).

For `C1OC1CO[C@@H]1CO[C@H]2[C@@H]1OC[C@H]2OCC1CO1` (stereo partly drawn), the T/C is 45 % of control (dose: 50.0 mg/kg/injection, schedule: Q01DX010 (sc), vehicle: saline with Tween-80); 112 % of control under setting [4]; 24 % of control (dose: 200.0 mg/kg/injection, schedule: Q01DX010 (sc), vehicle: saline with Tween-80).

Regarding `Cc1cn(C2CC(F)C(CO)O2)c(=O)[nH]c1=O` (stereo not drawn), the T/C under setting [9] was 56 % of control; the T/C under setting [10] was 105 % of control; the T/C under setting [11] was 111 % of control; the T/C (dose: 1200.0 mg/kg/injection, schedule: Q04DX003 (sc), vehicle: suspension in saline) is 93 % of control.

For `CC1=CC(=Nc2ccc(N(CCCl)CCCl)cc2)C=C(C)C1=O`, the T/C reads like this: (dose: 150.0 mg/kg/injection, schedule: Q04DX003 (sc), vehicle: Klucel (hydroxypropylcellulose) (HPC)) 34 % of control; (dose: 2400.0 mg/kg/injection, schedule: Q04DX003 (sc), vehicle: Klucel (hydroxypropylcellulose) (HPC)) -89 % of control.

Take `COC1=C(N)C(=O)c2nc(-c3nc(C(=O)O)c(C)c(-c4ccc(OC)c(OC)c4O)c3N)ccc2C1=O`: the T/C is 15 % of control and 18 % of control (dose: 0.13 mg/kg/injection, schedule: Q01DX010 (sc), vehicle: saline); -77 % of control and -75 % of control under setting [2].

Take `O=c1cc(-c2ccccc2)[nH]c2c1CCCC2`: the T/C was 54 % of control under setting [6], 53 % of control under setting [1], 65 % of control under setting [7] and 96 % of control under setting [8].

On to `C=C(C)C(=NC(C)(C)C)Nc1ccccc1`, for which the T/C under setting [3] was 101 % of control.

On to `O=NN(CCCl)C(=O)NCCO`, for which the T/C by setting is: (dose: 3.12 mg/kg/injection, schedule: Q04DX003 (sc), vehicle: water) 72 % of control and 208 % of control; (dose: 12.5 mg/kg/injection, schedule: Q04DX003 (sc), vehicle: water) 10 % of control.

Consider `CCCCCCOC(CN(C)C)C(Cl)(Cl)Cl` (stereo not drawn), for which the T/C is 70 % of control under setting [6], 69 % of control under setting [1], 71 % of control under setting [7] and 58 % of control under setting [8].
